The target of the experiment is T1, sodium-proton exchanger of subtype 3 (NHE3) (Homo sapiens, UniProt P48764).
T1 construct: expressed in transfected cells
T1 sequence (P48764 26-834): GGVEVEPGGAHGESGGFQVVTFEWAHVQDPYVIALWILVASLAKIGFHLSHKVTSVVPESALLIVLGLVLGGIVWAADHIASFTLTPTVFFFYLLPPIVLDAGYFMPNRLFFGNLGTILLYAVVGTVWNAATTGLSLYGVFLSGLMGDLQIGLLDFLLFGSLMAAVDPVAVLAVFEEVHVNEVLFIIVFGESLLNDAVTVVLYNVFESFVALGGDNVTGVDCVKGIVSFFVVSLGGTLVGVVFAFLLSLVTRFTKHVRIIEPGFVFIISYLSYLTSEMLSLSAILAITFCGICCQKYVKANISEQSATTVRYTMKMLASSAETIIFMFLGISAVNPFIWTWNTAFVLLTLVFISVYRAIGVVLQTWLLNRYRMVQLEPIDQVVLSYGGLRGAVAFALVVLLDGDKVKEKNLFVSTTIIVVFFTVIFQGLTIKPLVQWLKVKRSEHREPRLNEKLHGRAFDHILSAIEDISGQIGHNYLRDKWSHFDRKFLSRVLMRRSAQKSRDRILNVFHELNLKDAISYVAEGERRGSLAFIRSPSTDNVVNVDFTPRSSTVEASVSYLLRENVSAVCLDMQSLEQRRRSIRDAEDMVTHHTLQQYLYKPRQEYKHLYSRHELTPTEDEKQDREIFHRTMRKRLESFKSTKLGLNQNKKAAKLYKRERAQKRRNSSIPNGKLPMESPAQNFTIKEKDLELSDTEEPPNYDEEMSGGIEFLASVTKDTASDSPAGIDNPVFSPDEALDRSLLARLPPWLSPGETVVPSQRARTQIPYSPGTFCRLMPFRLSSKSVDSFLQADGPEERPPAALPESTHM
Description: Recovery of intracellular pH (pHi) after acidification in LAP1 cells stably expressing NHE3 (BCECF fluorescence, FLIPR). As to conditions: LAP1 cells stably expressing NHE3; pH recovery after acidification; range 1 is % inhibition at 10 μM; read-out: Activity range (inhibitory effect on NHE3). The experiment is classed as cell-based.

Where only a bound is given, the exact number is not on record here.

Description: In this assay, the recovery of the intracellular pH (pHi) of LAP1 cells which stably express the sodium-proton exchanger of subtype 3 (NHE3) after acidification was determined. The recovery occurs even under bicarbonate-free conditions with functional NHE3. To this end, the pHi was determined using the pH-sensitive fluorescent dye BCECF (Molecular Probes, Eugene, Oreg., USA, employing the precursors BCECF-AM). The cells were initially incubated with BCECF (5 μM BCECF-AM) in NH4Cl buffer (NH4Cl buffer: 115 mM cholineCl, 20 mM NH4Cl, 5 mM KCl, 1 mM CaCl2, 1 mM MgCl2, 20 mM Hepes, 5 mM glucose, a pH of 7.4 was adjusted with 1 M KOH). The intracellular acidification was induced by washing the cells incubated in NH4Cl buffer with NH4Cl-free buffer (133.8 mM choline chloride, 4.7 mM KCl, 1.25 mM CaCl2, 1.25 mM MgCl2, 0.97 mM K2HPO4, 0.23 mM KH2PO4, 5 mM Hepes, 5 mM glucose, a pH of 7.4 was adjusted with 1 M KOH). After the washing step, 90 μl of the NH4Cl-free buffer were left on the cells. The pH recovery was started by adding 90 μl of Na^+-containing buffer (133.8 mM NaCl, 4.7 mM KCl, 1.25 mM CaCl2, 1.25 mM MgCl2, 0.97 mM Na2HPO4, 0.23 mM NaH2PO4, 10 mM Hepes, 5 mM glucose, a pH of 7.4 was adjusted with 1 M NaOH) in a measuring instrument (FLIPR, “Fluorometric Imaging Plate Reader”, Molecular Devices, Sunnyvale, Calif., USA). The BCECF fluorescence was determined with an excitation wavelength of 498 nm and the FLIPR emission filter 1 (bandpass from 510 to 570 nm). The subsequent changes in fluorescence as a measure of pH recovery were recorded for two minutes. To calculate the NHE3-inhibitory power of the tested substances, the cells were initially investigated in buffers with which complete or absolutely no pH recovery took place. For complete pH recovery (100%), the cells were incubated in Na^+-containing buffer (see above), and to determine the 0% value were incubated in Na^+-free buffer (see above). The substances to be tested were made up in Na^+-containing buffer. The recovery of the intracellular pH at each tested concentration of a substance was expressed as percent of the maximum recovery.
The IC50 of the respective substance for NHE3 was calculated from the percentages of pH recovery using the program XLFit (idbs, Surrey, UK).

With `c1ccc2c(c1)CC[C@H](N1CCOCC1)[C@H]2Oc1ccc2ccncc2c1` (racemic) [Example 588, 7-(rac-trans-(1,2)-2-morpholin-4-yl-1,2,3,4-tetrahydronaphthalen-1-yloxy)isoquinoline], the inhibition at 10 µM fell in the range of 20 to 50%.
`CC(=O)Nc1cccc(O[C@@H]2c3ccccc3C[C@H]2N2C[C@H]3CNC[C@H]3C2)c1` (racemic) [Example 674, N-{3-[rac-trans-(1,2)-2-(hexahydropyrrolo[3,4-c]pyrrol-2-yl)indan-1-yloxy]phenyl}acetamide]: the IC50 was 1 to 10 µM.
On the same count and under the same terms, as for `Nc1ccc2c(O[C@H]3c4ccccc4CC[C@@H]3N3CCC[C@@H](N)C3)cccc2c1` (racemic) [Example 80, (R)-1-[rac-trans-(1,2)-1-(6-aminonaphthalen-1-yloxy)-1,2,3,4-tetrahydronaphthalen-2-yl]piperidin-3-ylamine], the figure is 1 to 10 µM.
Regarding `CC(=O)Nc1cccc(O[C@H]2c3ccccc3C[C@@H]2N2CCCCC2)c1` [Example 663, N-[3-(trans-(1S,2S)-2-piperidin-1-ylindan-1-yloxy)phenyl]acetamide], the IC50 is less than 1 µM.
Turning to `NS(=O)(=O)c1ccc(O[C@@H]2c3ccccc3C[C@H]2NC2CCC2)c(F)c1` (racemic) [Example 709, 4-(rac-trans-(1,2)-2-Cyclobutylamino-indan-1-yloxy)-3-fluoro-benzenesulfonamide], the IC50 was less than 1 µM.
As to `O[C@@H]1CCN([C@H]2Cc3c(Cl)cc(Cl)cc3[C@@H]2Oc2ccc(-n3ccnc3)cc2)C1` [Example 728, (R)-1-[trans-(1S,2S)-4,6-Dichloro-1-(4-imidazol-1-yl-phenoxy)-indan-2-yl]-pyrrolidin-3-ol], the IC50 fell in the range of 1 to 10 µM.
Consider `O=C1CCCN1c1ccc(Cl)c(O[C@H]2c3cc(Cl)cc(Cl)c3C[C@@H]2N2CC[C@@H](O)C2)c1` [Example 336, 1-{4-chloro-3-[(1S,2S)-4,6-dichloro-2-((R)-3-hydroxypyrrolidin-1-yl)indan-1-yloxy]phenyl}pyrrolidin-2-one], for which the IC50 is less than 1 µM.
For `NCC1CCN([C@@H]2Cc3ccccc3[C@H]2Oc2ccc(NC(=O)OCc3ccccc3)cc2)C1` (mixture of isomers) [Example 240, {4-[rac-trans-(1,2)-2-(3-aminomethylpyrrolidin-1-yl)indan-1-yloxy]phenyl}carbamic acid benzyl ester], the IC50 lay within 1 to 10 µM.
As to `CN(C)C(=O)Cc1ccc(O[C@H]2c3ccccc3CC[C@@H]2N2CCC[C@H](N)C2)cc1` (racemic) [Example 382, 2-{4-[rac-trans-(1,2)-2-((S)-3-aminopiperidin-1-yl)-1,2,3,4-tetrahydronaphthalen-1-yloxy]phenyl}-N,N-dimethylacetamide], the inhibition at 10 µM lay in the range of 20 to 50%.
`O=C1CNC(=O)N1c1ccc(O[C@H]2c3cc(Cl)cc(F)c3C[C@@H]2NC2CCCC2)c(F)c1` [Example 753, 3-[4-(trans-(1S,2S)-6-Chloro-2-cyclopentylamino-4-fluoro-indan-1-yloxy)-3-fluoro-phenyl]-imidazolidine-2,4-dione]: the IC50 lay within 1 to 10 µM.
Same read-out and setting: the value for `NS(=O)(=O)c1ccc(O[C@H]2c3c(Cl)cccc3C[C@@H]2N2CCCC2)cc1` (racemic) [Example 476, 4-(rac-trans-(1,2)-7-chloro-2-pyrrolidin-1-ylindan-1-yloxy)benzenesulfonamide] was 1 to 10 µM; that for `CS(=O)(=O)c1ccc(O[C@H]2c3cc(Cl)cc(Cl)c3C[C@@H]2N2CCCNCC2)cc1` (racemic) [Example 277, 1-[rac-trans-(1,2)-4,6-dichloro-1-(4-methanesulfonylphenoxy)indan-2-yl]-[1,4]diazepane] was less than 1 µM.
In the case of `N[C@H]1CCCN([C@H]2CCc3ccccc3[C@@H]2Oc2ccccc2Br)C1` (racemic) [Example 151, (S)-1-[rac-trans-(1,2)-1-(2-bromophenoxy)-1,2,3,4-tetrahydronaphthalen-2-yl]piperidin-3-ylamine], the inhibition at 10 µM was 20 to 50%.
Same read-out and setting: as for `Cc1cc(O[C@H]2c3cc(Cl)cc(F)c3C[C@@H]2N2CCNCC2)ccc1S(=O)(=O)C(F)(F)F` (racemic) [Example 290, 1-[rac-trans-(1,2)-6-chloro-4-fluoro-1-(3-methyl-4-trifluoromethanesulfonylphenoxy)indan-2-yl]piperazine], the figure is 20 to 50%.
As for `CS(=O)(=O)c1ccc(O[C@H]2c3cc(Cl)cc(Cl)c3C[C@@H]2N2CC[C@@H](N3CCCC3)C2)cc1` [Example 99, (R)-1′-[trans-(1S,2S)-4,6-dichloro-1-(4-methanesulfonylphenoxy)indan-2-yl]-[1,3′]bipyrrolidinyl], the IC50 was less than 1 µM.
For the compound `CCCc1ccc(NC(C)=O)cc1O[C@H]1c2ccccc2CC[C@@H]1N1CCC[C@@H](N)C1` (racemic) [Example 675, N-{3-[rac-trans-(1,2)-2-((R)-3-aminopiperidin-1-yl)-1,2,3,4-tetrahydronaphthalen-1-yloxy]-4-propylphenyl}acetamide], the IC50 is 1 to 10 µM.
The same measure, in the same setting: as for `CS(=O)(=O)c1ccc(O[C@H]2c3cc(Cl)cc(Cl)c3C[C@@H]2N2CCC[C@H]2CO)cc1` [Example 228, {(S)-1-[trans-(1S,2S)-4,6-dichloro-1-(4-methanesulfonylphenoxy)indan-2-yl]pyrrolidin-2-yl}methanol], the figure is 1 to 10 µM.
Turning to `N[C@@H]1CCCN([C@H]2CCc3ccccc3[C@@H]2Oc2ccc(F)c(C(F)(F)F)c2)C1` (racemic) [Example 69, (R)-1-[rac-trans-(1,2)-1-(4-fluoro-3-trifluoromethylphenoxy)-1,2,3,4-tetrahydronaphthalen-2-yl]piperidin-3-ylamine], the inhibition at 10 µM is 20 to 50%.
Turning to `Cc1nn(C)c(C)c1-c1ccc(O[C@H]2c3cc(Cl)ccc3C[C@@H]2N2CC[C@@H](O)C2)cc1` [Example 140, (R)-1-{trans-(1S,2S)-6-chloro-1-[4-(1,3,5-trimethyl-1H-pyrazol-4-yl)phenoxy]indan-2-yl}pyrrolidin-3-ol], the IC50 is 1 to 10 µM.
Still for that read-out and setting: as for `Cc1nnc(C)n1-c1ccc(O[C@H]2c3cc(Cl)cc(Cl)c3C[C@@H]2N(C)CCN(C)C)c(F)c1` [Example 726, N-{trans-(1S,2S)-4,6-Dichloro-1-[4-(3,5-dimethyl-[1,2,4]triazol-4-yl)-2-fluoro-phenoxy]-indan-2-yl}-N,N′,N′-trimethyl-ethane-1,2-diamine], the figure is less than 1 µM; as for `CS(=O)(=O)c1ccc(O[C@@H]2c3cc(Cl)cc(Cl)c3C[C@H]2n2ccnc2)cc1` (racemic) [Example 278, 1-[rac-trans-(1,2)-4,6-dichloro-1-(4-methanesulfonylphenoxy)indan-2-yl]-1H-imidazole], 1 to 10 µM; as for `CN(c1ccc(F)c(O[C@H]2c3cc(Cl)cc(F)c3C[C@@H]2N2CC[C@@H](O)C2)c1)S(C)(=O)=O` [Example 673, N-{3-[(1S,2S)-6-chloro-4-fluoro-2-((R)-3-hydroxypyrrolidin-1-yl)indan-1-yloxy]-4-fluorophenyl}-N-methyl-methanesulfonamide], 1 to 10 µM.
Turning to `Cc1nc(C)c(-c2ccc(O[C@H]3c4cc(Cl)cc(Cl)c4C[C@@H]3N3CC[C@@H](O)C3)cc2)s1` [Example 125, (R)-1-{trans-(1S,2S)-4,6-dichloro-1-[4-(2,4-dimethyl-thiazol-5-yl)phenoxy]indan-2-yl}pyrrolidin-3-ol], the inhibition at 10 µM lay in the range of 20 to 50%.
Consider `COc1cccc(F)c1O[C@@H]1c2ccccc2C[C@H]1N1C[C@H]2CNC[C@H]2C1` (racemic) [Example 5, 2-[rac-trans-(1,2)-1-(2-fluoro-6-methoxyphenoxy)indan-2-yl]octahydropyrrolo[3,4-c]pyrrole], for which the IC50 was 1 to 10 µM.
On the same count and under the same terms, as for `CN1CCN(c2cccc(O[C@H]3c4cc(Cl)cc(F)c4C[C@@H]3N3CC[C@@H](O)C3)c2)C1=O` [Example 320, 1-{3-[trans-(1S,2S)-6-chloro-4-fluoro-2-((R)-3-hydroxypyrrolidin-1-yl)indan-1-yloxy]phenyl}-3-methylimidazolidin-2-one], the figure is 1 to 10 µM; as for `NS(=O)(=O)c1ccc(O[C@H]2c3ccccc3C[C@@H]2CN2CCCC2)c(Cl)c1` (racemic) [Example 442, 3-chloro-4-(2-pyrrolidin-1-ylmethylindan-1-yloxy)benzenesulfonamide], 1 to 10 µM.
Still for that read-out and setting: the value for `NS(=O)(=O)c1ccc(O[C@H]2c3ccccc3C[C@@H]2N2CCCC(O)C2)c(Cl)c1Cl` (mixture of isomers) [Example 361, 2,3-dichloro-4-[trans-(1S,2S)-2-(3-hydroxy-piperidin-1-yl)indan-1-yloxy]benzenesulfonamide] was 1 to 10 µM; that for `CS(=O)(=O)c1ccc(N[C@H]2c3cc(Cl)cc(Cl)c3C[C@@H]2N2CC[C@@H](O)C2)cc1` [Example 26, (R)-1-[(1S,2S)-4,6-dichloro-1-(4-methanesulfonylphenylamino)indan-2-yl]pyrrolidin-3-ol] was 1 to 10 µM.
